Results as given in US20200078404A1, “COMBINATION OF A CELL THERAPY AND AN IMMUNOMODULATORY COMPOUND” (Juno Therapeutics, Inc., priority 2017, published 2020).

How the values were obtained:
anti-CD19 CAR T cells = assay: Proliferation of anti-CD19 CAR T cells under sub-optimal anti-CD3 stimulation (CTV dilution); assay type: cell-based, human; conditions: 5 μM lenalidomide, sub-optimal anti-CD3, 72 hours
Text: The CAR contained an anti-CD19 scFv, an Ig-derived spacer, a human CD28-derived transmembrane domain, a human 4-1BB-derived intracellular signaling domain and a human CD3 zeta-derived signaling domain. The nucleic acid construct encoding the CAR also included a truncated EGFR (tEGFR) sequence for use as a transduction marker, separated from the CAR sequence by a self-cleaving T2A sequence.

K562-CD19 cells = assay: Cytolytic activity of restimulated anti-CD19 CAR+ T cells against K562-CD19 cells; assay type: cell-based, human; conditions: 1 μM lenalidomide, 2nd and 4th restimulation
Procedure: Cells from each condition were plated in triplicate. Representative cell killing observed at the 2nd and 4th restimulation for both donors is shown in FIG. 18A (as normalized to K562-CD19-Nuc-labeled cells at t=0) or in FIG. 18B (% cell killing compared to vehicle only control (set at 100%)).

anti-BCMA CAR+ T cells = assay: T cell markers and proliferation of anti-BCMA CAR+ T cells stimulated with BCMA-conjugated beads; assay type: cell-based, human
Procedure: B cell maturation antigen (BCMA) was conjugated to beads by covalently coupling a BCMA-Fc fusion polypeptide, containing soluble human BCMA fused at its C-terminus to an Fc region of IgG, to the surface of commercially available tosyl-activated magnetic beads (ThermoFisher, Waltham Mass.). The beads are superparamagnetic, non-porous, monodisperse, tosylactivated beads that covalently bind primary amino and sulfhydryl groups. Conjugation was performed using beads having a diameter of approximately 2.8 μm (designated M-280) or 4.5 μm (designated M-450).
Various concentrations of the BCMA-Fc fusion protein ranging from 5 μg to 200 μg were added to approximately 1 mL of tocylactivated beads (e.g. containing about 4×10^9 tocylactivated beads having a diameter of 2.8 μm or about 4×10^8 tocylactivated beads having a diameter of 4.5 μm). Covalent coupling was performed by overnight incubation at 37° C. in phosphate buffered solution (PBS) containing 0.1% human serum albumin (HSA). Beads were washed and resuspended in 1 mL PBS with 0.1% HSA. After conjugation, the bead concentration was determined using a Cellometer. In the examples below, the BCMA-conjugated beads used in various studies are referred to with reference either to the amount of BCMA-Fc antigen added per mL or the antigen concentration (μg/mL) during the conjugation, e.g. 5 μg or 5 μg/mL; 50 μg or 50 μg/mL; 200 μg or 200 μg/mL and so on.
Approximately 1.5×10^6 CAR+ T cells were added to wells of a 12-well plate and were incubated with beads from a 200 μg/ml BCMA-conjugated bead composition at a ratio of CAR+ T cell to BCMA-conjugated bead of 1:0.3, 1:1 or 1:3 (approximately 0.5×10^6, 1.5. 10^6, and 4.5×10^6 beads per well, respectively). As controls, 5 μg/mL anti-CD3 antibody was coated to wells (sub-optimal concentration for stimulation) or cells were seeded in the absence of any agent (no stimulation control). […]
In a further experiment, anti-BCMA CAR-T cell compositions produced substantially as described in Example 1 were plated in 96-well plates at a density of 5×10^5 cells per well. […]

anti-BCMA CAR T cells = assay: Cytokine production on BCMA/PD-L1 conjugated beads; assay type: cell-based, human; conditions: 1 μM lenalidomide, 24 hours
Procedure: In another study, to explore whether the lenalidomide-induced potentiation of CAR T activation and cytokine production could override PD-L1-mediated inhibition, cells were cultured in the presence of BCMA beads generated as described in Example 9, with or without additional conjugation of human recombinant PD-L1-Fc. […] Cytokine production was measured in the supernatant.

[1] = tested on: anti-CD19 CAR-expressing T cells; assay: Cytokine production of anti-CD19 CAR-expressing T cells incubated with K562.CD19 target cells; assay type: cell-based, human; conditions: concentration-dependent, E:T 5:1 and 2.5:1, 24 hours, vs vehicle
[2] = tested on: anti-CD19 CAR-expressing T cells; assay: T cell surface markers of anti-CD19 CAR-expressing T cells incubated with K562.CD19; assay type: cell-based, human; conditions: all donors and E:T ratios
[3] = tested on: anti-CD19 CAR-expressing T cells; assay: Serial stimulation with K562.CD19: surface markers; assay type: cell-based, human
Procedure: (§1) Every 3-4 days (start of each new round), the cells were counted.
Expression of select surface markers was assessed on cells at day 4 (i.e., 4 days after the first stimulation) and day 28 (i.e., 4 days after the seventh stimulation). Specifically, harvested cells were analyzed by flow cytometry for CD3, CD4, CD8 and the surrogate marker for CAR expression, and also for the following surface markers: CD69, CD107a, PD-1, CD25, CD62L, CCR7, CD45RO, CD27, and LAG3.

K562.CD19 target cells = assay: Serial stimulation with K562.CD19: cytolytic function at day 24; assay type: cell-based, human; conditions: day 24 after serial stimulation
Text: as §1

[4] = tested on: anti-CD19 CAR-expressing T cells; assay: Serial stimulation with K562.CD19: expansion (cell doublings); assay type: cell-based, human; conditions: for cell doublings: 1000 nM lenalidomide
Text: as §1

RPMI-8226 = conditions: read-out: sensitive to lenalidomide; cited from earlier work
[5] = tested on: anti-CD19 CAR-expressing T cells; assay: Cytokine production after anti-idiotypic antibody stimulation; conditions: anti-idiotypic antibody 0.3-30 μg/ml, 24 hours; Compound 1 100, 1000 nM; lenalidomide 500, 5000 nM
anti-CD19 CAR+ T cells = assay: IL-10 in supernatants of anti-CD19 CAR+ T cells incubated with K562-CD19 cells; conditions: E:T 3:1 or 9:1, 24 hours

Nc1cccc2c1CN(C1CCC(=O)NC1=O)C2=O (centres unmarked) [lenalidomide, 3-(4-amino-1-oxo-1,3-dihydro-2H-isoindol-2-yl)piperidine-2,6-dione]
proliferation of CAR+ T cells (anti-CD19 CAR T cells): enhanced proliferation of the CAR+ T cells
anti-CD19 CAR+ T cell cytolytic activity (K562-CD19 cells): decrease in anti-CD19 CAR+ T cell cytolytic activity
expression level of Ikaros (anti-BCMA CAR+ T cells; 0.5 μM or 5 μM lenalidomide, 18 hours, all conditions): decreased
proliferative capacity of T cells (CTV) (anti-BCMA CAR+ T cells; 5 μM lenalidomide, 200 μg BCMA beads, 1:1, three days): increased the proliferative capacity of T cells
surface expression of CD25 in CD4+ and CD8+ T cells (anti-BCMA CAR+ T cells; 5 μM lenalidomide, BCMA-conjugated beads or anti-CD3): further increased the extent of surface expression of CD25
secreted cytokine levels (IFN-γ, IL-2, TNF-α) (anti-BCMA CAR T cells): potentiated secreted cytokine levels
cytokine production (IFN-γ, IL-2, TNF-α) [1]: increased
expression of CD27 [2]: downregulated in a concentration-dependent manner
expression of CD45RO [2]: increased
expression of CD28 ([3]; CD4+ and CD8+ CAR-expressing T cells, day 28, three donors): decreased in a dose-dependent manner
PD-1 expression ([3]; both E:T ratios, day 4 and day 28): downregulated to some degree in all donors
CD25 and LAG3 expression ([3]; day 4): upregulated across all three donors
CCR7 expression ([3]; day 28): generally decreased at day 28
cytolytic activity of anti-CD19 CAR-expressing T cells (K562.CD19 target cells): increase the cytolytic activity
CAR+ T cell counts ([4]; 100 nM lenalidomide): increased CAR+ T cell counts for two out of three donors
cell doublings ([4]; 2.5:1 E:T ratio, later rounds): lower cell doublings were only observed in two of the donors
cell doublings ([4]; 10:1 E:T ratio, after 3-4 rounds, all donors): decreased cell doublings
IC50 (RPMI-8226): 6.43 µM
IFN-γ, IL-2 and TNF-α production [5]: increased relative to the vehicle control
secretion and/or accumulation of IL-10 (anti-CD19 CAR+ T cells): dose-dependently increased secretion and/or accumulation of IL-10
